Experimental data as given in US6610689B2, “HIV protease inhibitors based on amino acid derivatives” (priority 2001, dated 2003).
Where two headings read alike, the source gives them in different places.

Molecular target: T1, HIV protease (Human immunodeficiency virus type 1 group M subtype B, UniProt P04585)
T1 construct: A third viral enzyme known as protease then cleaves the polyproteins
Assay: Enzymatic Assay for Determining the Inhibition Constant (Ki) of Synthetic Compounds Targeting the HIV Protease (fluorometric FRET assay)
Format: biochemical
From the text: Enzymatic Assay for Determining the Inhibition Constant (Ki) of Synthetic Compounds Targeting the HIV Protease
This is a fluorometric assay based on the cleavage by protease of a substrate carrying a donor group (EDANS) and an acceptor group (DABCYL) on each side of the cleavage site, interacting together through fluorescence resonance energy transfer (FRET) as described by Matayoshi et al. (Science 247:[…], 1990).
After calculation of Vo and Vi, the inhibition constant (Ki) of the compound is determined using the equation of Henderson: [formula]
where Vo=the enzyme's initial velocity
Vi=the enzyme velocity in the presence of the inhibitory compound,
[I]=inhlibitor concentration, [S]=substrate concentration,
Km=Michaelis-Menten constant and Kiapp=apparent Ki
Graphs are traced and the Ki determined using GraphPad Prism software v. 3.0.

[1] = Anti-protease activity of Ne-amino acid substituted L-lysine derivatives and analogs of formula I, read-out: Ki

| SMILES | Ki | Ki [1] |
| --- | --- | --- |
| Cc1ccc(S(=O)(=O)N[C@@H](CC2CCCCC2)C(=O)NCCCC[C@@H](C(=O)O)N(CC(C)C)S(=O)(=O)c2ccc(C)cc2)cc1 [Example 33, Nα-Isobutyl-Nα-(4-methylbenzenesulfonyl)-Nε-[N′α-(4-methylbenzenesulfonyl)-L-cyclohexylalanyl]-L-lysine] | 3.2 nM |  |
| Cc1ccc(S(=O)(=O)N[C@@H](CCC(N)=O)C(=O)NCCCC[C@@H](C(=O)O)N(CC(C)C)S(=O)(=O)c2ccc(C)cc2)cc1 [Example 34, Nα-Isobutyl-Nα-(4-methylbenzenesulfonyl)-Nε-[N′α-(4-methylbenzenesulfonyl)-L-glutaminyl]-L-lysine] | 95 nM |  |
| Cc1ccc(S(=O)(=O)N[C@@H](Cc2cccs2)C(=O)NCCCC[C@@H](C(=O)O)N(CC(C)C)S(=O)(=O)c2ccc(C)cc2)cc1 [Example 35, Nα-Isobutyl-Nα-(4-methylbenzenesulfonyl)-Nε-[N′α-(4-methylbenzenesulfonyl)-L-2-thiophenylalanyl]-L-lysine] | 21 nM |  |
| Cc1ccc(S(=O)(=O)N(CC(C)C)[C@@H](CCCCNC(=O)[C@H](CO)NC(=O)OCC2c3ccccc3-c3ccccc32)C(=O)O)cc1 [Example 36, Nα-Isobutyl-Nα-(4-methylbenzenesulfonyl)-Nε-[N′α-(9-fluorenylmethoxycarbonyl)-L-seryl]-L-lysine] |  | 162 nM |
| Cc1ccc(S(=O)(=O)N(CC(C)C)[C@@H](CCCCNC(=O)[C@H](CC2CCCCC2)NC(=O)OCC2c3ccccc3-c3ccccc32)C(=O)O)cc1 [Example 37, Nα-Isobutyl-Nα-(4-methylbenzenesulfonyl)-Nε-[N′α-(9-fluorenylmethoxycarbonyl)-L-cyclohexylalanyl]-L-lysine] | 28 nM |  |
| Cc1ccc(S(=O)(=O)N[C@@H](CCC(=O)O)C(=O)NCCCC[C@@H](C(=O)O)N(CC(C)C)S(=O)(=O)c2ccc(C)cc2)cc1 [Example 38, Nα-Isobutyl-Nα-(4-methylbenzenesulfonyl)-Nε-[N′α-(4-methylbenzenesulfonyl)-L-glutamyl]-L-lysine] | 220 nM |  |
| Cc1ccc(S(=O)(=O)N[C@@H](CCCCN)C(=O)NCCCC[C@@H](C(=O)O)N(CC(C)C)S(=O)(=O)c2ccc(C)cc2)cc1 [Example 39, Nα-Isobutyl-Nα-(4-methylbenzenesulfonyl)-Nε-[N′α-(4-methylbenzenesulfonyl)-L-lysyl]-L-lysine] | > 300 nM |  |
| Cc1ccc(S(=O)(=O)N[C@@H](COCc2ccccc2)C(=O)NCCCC[C@@H](C(=O)O)N(CC(C)C)S(=O)(=O)c2ccc(C)cc2)cc1 [Example 40, Nα-Isobutyl-Nα-(4-methylbenzenesulfonyl)-Nε-[N′α-(4-methylbenzenesulfonyl)-O-benzyl-L-seryl]-L-lysine] | 8 nM |  |
| Cc1ccc(S(=O)(=O)N[C@@H](CC(=O)O)C(=O)NCCCC[C@@H](C(=O)O)N(CC(C)C)S(=O)(=O)c2ccc(C)cc2)cc1 [Example 41, Nα-Isobutyl-Nα-(4-methylbenzenesulfonyl)-Nε-[N′α-(4-methylbenzenesulfonyl)-L-aspartyl]-L-lysine] | 172 nM |  |
| Cc1ccc(S(=O)(=O)N[C@@H](Cc2cc3ccccc3s2)C(=O)NCCCC[C@@H](C(=O)O)N(CC(C)C)S(=O)(=O)c2ccc(C)cc2)cc1 [Example 42, Nα-Isobutyl-Nα-(4-methylbenzenesulfonyl)-Nε-[N′α-(4-methylbenzenesulfonyl)-L-3-(2-thianaphthyl)-alanyl]-L-lysine] | 256 nM |  |
| Cc1ccc(S(=O)(=O)N[C@@H](Cc2c[nH]c3ccccc23)C(=O)NCCCC[C@@H](C(=O)O)N(CC(C)C)S(=O)(=O)c2ccc(N)cc2)cc1 [Example 43, Nα-(4-Aminobenzenesulfonyl)-Nα-isobutyl-Nε-[N′α-(4-methylbenzenesulfonyl)-L-tryptophanyl]-L-lysine] | 0.56 nM |  |
| CC(C)CN([C@@H](CCCCNC(=O)[C@H](Cc1ccccc1)NS(=O)(=O)c1ccccc1)C(=O)O)S(=O)(=O)c1ccc(N)cc1 [Example 44, Nα-(4-Aminobenzenesulfonyl)-Nα-isobutyl-Nε-(N′α-benzenesulfonyl-L-phenylalanyl)-L-lysine] | 3.6 nM |  |
| Cc1ccc(S(=O)(=O)NC(Cc2c[nH]c3ccccc23)C(=O)NCCCCC(C(=O)OCC(O)CO)N(CC(C)C)S(=O)(=O)c2ccc(C)cc2)cc1 [Example 45, Nα-Isobutyl-Nα-(4-methylbenzenesulfonyl)-Nε-[N′α-(4-methylbenzenesulfonyl)-L-tryptophanyl]-L-lysine 2,3-Dihydroxypropyl Ester] | > 300 nM |  |
| CC(C)CN([C@@H](CCCCNC(=O)[C@H](Cc1ccccc1)NS(=O)(=O)c1cccs1)C(=O)O)S(=O)(=O)c1ccc(N)cc1 [Example 46, Nα-(4-Aminobenzenesulfonyl)-Nα-isobutyl-Nε-[N′α-(2-thiophenesulfonyl)-L-phenylalanyl]-L-lysine] | 0.477 nM |  |
| Cc1ccc(S(=O)(=O)N[C@@H](CC(N)=O)C(=O)NCCCC[C@@H](C(=O)O)N(CC(C)C)S(=O)(=O)c2ccc(N)cc2)cc1 [Example 47, Nα-(4-Aminobenzenesulfonyl)-Nα-isobutyl-Nε-[N′α-(4-methylbenzenesulfonyl)-L-asparagyl]-L-lysine] | 54 nM |  |
| Cc1ccc(S(=O)(=O)N(CC(C)C)[C@@H](CCCCNC(=O)[C@H](CC(N)=O)NC(=O)OCc2ccccc2)C(=O)O)cc1 [Example 48, Nα-Isobutyl-Nα-(4-Methylbenzenesulfonyl)-Nε-(N′α-benzyloxycarbonyl-L-asparagyl)-L-lysine] | 114 nM |  |
| CC(C)CN([C@@H](CCCCNC(=O)[C@H](Cc1ccccc1)NS(=O)(=O)c1cccs1)C(=O)NN)S(=O)(=O)c1ccc(N)cc1 [Example 49, Nα-(4-Aminobenzenesulfonyl)-Nα-isobutyl-Nε-[N′α-(2-thiophenesulfonyl)-L-phenylalanyl]-L-lysine Hydrazide] | 17 nM |  |
| Cc1ccc(S(=O)(=O)N(CC(C)C)[C@@H](CCCCNC(=O)[C@H](Cc2ccccc2)NC(=O)c2ccccc2)C(=O)O)cc1 [Example 50, Nα-Isobutyl-Nα-(4-methylbenzenesulfonyl)-Nε-(N′α-benzoyl-L-phenylalanyl)-L-lysine] | 2 nM |  |
| Cc1ccc(S(=O)(=O)N(CC(C)C)[C@@H](CCCCNC(=O)[C@H](Cc2ccccc2)NC(=O)N2CCOCC2)C(=O)O)cc1 [Example 51, Nα-Isobutyl-Nα-(4-methylbenzenesulfonyl)-Nε-[N′α-(4-morpholinecarbonyl)-L-phenylalanyl]-L-lysine] | 0.9 nM |  |
| Cc1ccc(S(=O)(=O)N(CC(C)C)[C@@H](CCCCNC(=O)[C@H](Cc2ccccc2)NC(=O)C(C)(C)C)C(=O)O)cc1 [Example 52, Nα-Isobutyl-Nα-(4-methylbenzenesulfonyl)-Nε-(N′α-pivaloyl-L-phenylalanyl)-L-lysine] | 0.545 nM |  |
| Cc1ccc(S(=O)(=O)N(CC(C)C)[C@@H](CCCCNC(=O)[C@H](Cc2c[nH]c3ccccc23)NS(=O)(=O)c2cccs2)C(=O)O)cc1 [Example 53, Nα-Isobutyl-Nα-(4-methylbenzenesulfonyl)-Nε-[N′α-(2-thiophenesulfonyl)-L-tryptophanyl]-L-lysine] | 13 nM |  |
| Cc1ccc(S(=O)(=O)N[C@@H](Cc2ccccc2)C(=O)NCCCC[C@@H](C(=O)O)N(CC(C)C)S(=O)(=O)c2cccs2)cc1 [Example 54, Nα-Isobutyl-Nα-(2-thiophenesulfonyl)-Nε-[N′α-(4-methylbenzenesulfonyl)-L-phenylalanyl]-L-lysine] | 17 nM |  |
| Cc1ccc(S(=O)(=O)N(CC(=O)NCCCC[C@@H](C(=O)O)N(CC(C)C)S(=O)(=O)c2ccc(C)cc2)CC(C)C)cc1 [Example 55, Nα-Isobutyl-Nα-(4-methylbenzenesulfonyl)-Nε-[N′α-isobutyl-N′α-(4-methylbenzenesulfonyl)-glycyl]-L-lysine] |  | 14 nM |
| CC(=O)Nc1ccc(S(=O)(=O)N[C@@H](Cc2ccccc2)C(=O)NCCCC[C@@H](C(=O)O)N(CC(C)C)S(=O)(=O)c2ccc(N)cc2)cc1 [Example 56, Nα-(4-Aminobenzenesulfonyl)-Nα-isobutyl-Nε-[N′α-(4-acetylaminobenzenesulfonyl)-L-phenylalanyl]-L-lysine] | 1.9 nM |  |
| COC(=O)[C@H](CCCCNC(=O)[C@H](Cc1ccccc1)NS(=O)(=O)c1cccs1)N(CC(C)C)S(=O)(=O)c1ccc(C)cc1 [Example 57, Nα-Isobutyl-Nα-(4-methylbenzenesulfonyl)-Nε-[N′α-(2-thiophenesulfonyl)-L-phenylalanyl]-L-lysine Methyl Ester] | > 300 nM |  |
| Cc1ccc(S(=O)(=O)N(CC(C)C)[C@@H](CCCCNC(=O)[C@H](Cc2ccccc2)NS(=O)(=O)c2cccs2)C(N)=O)cc1 [Example 58, Nα-Isobutyl-Nα-(4-methylbenzenesulfonyl)-Nε-[N′α-(2-thiophenesulfonyl)-L-phenylalanyl]-L-lysinamide] | 5.2 nM |  |
| Cc1ccc(S(=O)(=O)N(CC(C)C)[C@@H](CCCCNC(=O)[C@H](Cc2ccccc2)NS(=O)(=O)c2cccs2)C(=O)NO)cc1 [Example 59, Nα-Isobutyl-Nα-(4-methylbenzenesulfonyl)-Nε-[N′α-(2-thiophenesulfonyl)-L-phenylalanyl]-L-lysine N-hydroxylamide] | 13 nM |  |
| Cc1ccc(S(=O)(=O)N(CC(C)C)[C@@H](CCCCNC(=O)[C@H](Cc2ccccc2)NS(=O)(=O)c2cccs2)C(=O)NCCO)cc1 [Example 60, Nα-Isobutyl-Nα-(4-methylbenzenesulfonyl)-Nε-[N′α-(2-thiophenesulfonyl)-L-phenylalanyl]-L-lysine Ethanolamide] | > 300 nM |  |
| Cc1ccc(S(=O)(=O)N[C@@H](CC(N)=O)C(=O)NCCCC[C@@H](C(=O)O)N(CC(C)C)S(=O)(=O)c2ccc(C)cc2)cc1 [Example 61, Nα-Isobutyl-Nα-(4-methylbenzenesulfonyl)-Nε-[N′α-(4-methylbenzenesulfonyl)-L-asparagyl]-L-lysine] | 296 nM |  |
